For data set [1], the target named is T1, IRAK4 (Homo sapiens (Human), UniProt Q9NWZ3). Briefly: Kinase binding ability (KINOMEscan site-directed competition binding assay). As to the method:
The Equilibrium dissociation constant reflected the test compound's kinase binding (Kd). The KINOMEscan, a site-directed competition binding assay, was used to measure interactions between test compounds and specific kinases. The kinase-tagged T7 phage strains were derived from the BL21 strain's E. coli host. T7 phage was used to infect E. coli, which was then incubated until lysis occurred. The remaining kinases were produced in HEK-293 cells and tagged with DNA. To create affinity resins for kinase, streptavidin-coated magnetic beads were treated with biotinylated small molecule ligands. The assay consists of three components: a DNA-tagged kinase, an immobilized ligand, and the test compound. An immobilized ligand could compete with the compound binding the kinase active site. The affinity beads were washed with wash buffer and re-suspended in elution buffer following reactions in a polypropylene 384-well plate. qPCR of the kinase-DNA tag was used to assess the test compound's ability to bind with the selected kinase. The assay was carried out in accordance with the manufacturer's instructions (Eurofins DiscoverX Corporation).
Binding constants (Kd) were calculated with a standard dose-response curve using the Hill equation: […]

In data set [2] the target is T1, IRAK4. Briefly: Screening the compounds against IRAK4 with ATP (Caliper, FAM-labeled peptide). The format is biochemical. As to conditions: for IC50: read-out: IC50 (nM) (10 μM ATP); for activity, times better than that of the positive control compound CA4948: IRAK4 kinase inhibition relative to CA4948. On the procedure:
Prepare Ix kinase base buffer and stop buffer for testing kinases: (1) base buffer: 50 mM HEPES (pH 7.5), 0.0015% Brij-35; (2) stop buffer: 100 mM HEPES (pH 7.5), 0.015% Brij-35, 0.2% Coating Reagent #3, 50 mM EDTA. Then prepare compounds for testing: Dilute the compound to 50× of the final desired highest inhibitor concentration in reaction by 100% DMSO. Transfer 100 μL of this compound dilution to a well in a 96-well plate (source plate).
Serially dilute the compounds by 3-fold for a total of 10 points. Transfer 10 μL of the compound from the source plate to a new 96-well plate (intermediate plate) and add 90 μL of Ix kinase buffer. Shake the mixture on the intermediate plate for 10 min. Transfer 5 μL of each well from the 96-well intermediate plate to a 384-well plate in duplicates. Add 10 μL of 2.5× enzyme solution to each well of the 384-well assay plate and incubate at room temperature for 10 min. Add 10 μL, of 2.5×FAM-labeled peptide and ATP solution and incubate at 28° C. for a period of time. Finally stop the reaction by adding 30 μL of stop buffer and collect data on Caliper to obtain the IC50.

The nature of data set [3]: Metabolic stability in rat liver microsomes. As to conditions: for half-life: SD rat liver microsomes, NADPH, 37° C., read-out: Rat microsome (t1/2). It is filed as in vitro ADME, SD Rat. On the procedure: (§1) The appropriate concentrations of microsomes working solutions (0.56 mg/mL) were prepared in potassium phosphate buffer. The test compounds were incubated with Human, SD Rat, CD-1 Mouse and Beagle Dog liver microsomes for 10 min at 37° C. with constant shaking. The reaction was initiated by the addition of nicotinamide adenine dinucleotide phosphate (NADPH) cofactor after a 10 min pre-incubation. At 5, 15, 30, 45, and 60 min, the samples were taken and placed into the stop solution (Cold acetonitrile containing 200 ng/mL tolbutamide and 200 ng/mL labetalol as internal standards). All sampling plates were shaken for 10 min, then centrifuged at 4000 rpm for 20 minutes at 4° C. Each supernatant of bioanalysis plate was sealed and shaken for 10 minutes prior to LC-MS analysis.
Background: Liver microsomes are a subcellular fraction often used to study metabolism.

Data set [4] can be described thus: Metabolic stability in human liver microsomes. The format is in vitro ADME. As to conditions: for half-life: NADPH, 37° C., read-out: Human microsome (t1/2). On the procedure:
as §1

Data set [5] is described as follows: Metabolic stability in dog liver microsomes. As to conditions: for half-life: Beagle dog liver microsomes, NADPH, 37° C., read-out: Dog microsome (t1/2). It is filed as in vitro ADME, Beagle Dog. As to the method: as §1
The nature of data set [6]: Metabolic stability in mouse liver microsomes. It is filed as in vitro ADME, CD-1 Mouse. As to conditions: for half-life: CD-1 mouse liver microsomes, NADPH, 37° C., read-out: Mouse microsome (t1/2). As to the method:
as §1

15 compounds from patent publication US20250074919A1, “Heteroaryl compounds as inhibitors of irak4, compositions and applications thereof” (Accro Bioscience (HK) Limited, priority 2021, published 2025) can be followed below.

Where a name gives a salt, the structure may show the parent alone. Read-outs that look alike come from different tables or passages of the source.

Usually Kd stands for the concentration at which binding is half-saturated. The low end stands for tighter binding, the high end for weaker binding. A word on the IC50: it is the concentration that inhibits the measured activity by half.

T1 sequence (Q9NWZ3 whole entry): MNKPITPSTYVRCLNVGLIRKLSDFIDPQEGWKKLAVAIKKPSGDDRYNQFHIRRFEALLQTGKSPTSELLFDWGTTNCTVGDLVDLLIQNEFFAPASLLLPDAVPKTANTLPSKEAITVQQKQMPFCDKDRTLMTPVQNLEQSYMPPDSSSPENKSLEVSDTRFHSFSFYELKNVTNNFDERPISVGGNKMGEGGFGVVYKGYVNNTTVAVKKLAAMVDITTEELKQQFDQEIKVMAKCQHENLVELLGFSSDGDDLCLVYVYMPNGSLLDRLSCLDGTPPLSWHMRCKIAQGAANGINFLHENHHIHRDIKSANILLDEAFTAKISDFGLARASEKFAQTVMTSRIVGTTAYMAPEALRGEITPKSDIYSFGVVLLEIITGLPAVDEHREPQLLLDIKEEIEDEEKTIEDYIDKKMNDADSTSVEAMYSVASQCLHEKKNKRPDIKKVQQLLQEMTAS

For `Cn1cc(-c2cccc(NC(=O)c3cc4oc(N5CCOCC5)nc4nc3N3CC[C@@H](O)C3)n2)cn1` [Compound A1, (R)-5-(3-hydroxypyrrolidin-1-yl)-N-(6-(1-methyl-1H-pyrazol-4-yl)pyridin-2-yl)-2-morpholinooxazolo[4,5-b]pyridine-6-carboxamide], the “binding affinities to IRAK4 (in words)” value at IRAK4 [1] is recorded as “high binding affinities”. Also, on IRAK4 [1] (Kd between IRAK4 and compound), binding was put at a Kd of 29 nM. For the same compound, the IC50 at IRAK4 [2] (IRAK4 kinase, 10 μM ATP) was determined as 405 nM. Also, in data set [3], the half-life was above 2.42 h and the “metabolic stability in liver microsomes of rat (in words)” value is on record as “good metabolic stability”. Further, in data set [4], the “metabolic stability in liver microsomes of human (in words)” value was “good metabolic stability” and the half-life was above 2.42 h. In data set [5], the half-life is above 2.42 h and the “metabolic stability in liver microsomes of dog (in words)” value was “good metabolic stability”. Further, in data set [6], the half-life is above 2.42 h and the “metabolic stability in liver microsomes of mouse (in words)” value is recorded as “good metabolic stability”.

For `COC1CCN(c2nc3nc(N4CCOCC4)oc3cc2C(=O)Nc2cccc(-c3cnn(C)c3)n2)CC1` [Compound A24, 5-(4-Methoxypiperidin-1-yl)-N-(6-(1-methyl-1H-pyrazol-4-yl)pyridin-2-yl)-2-morpholinooxazolo[4,5-b]pyridine-6-carboxamide], the “activity, times better than that of the positive control compound CA4948” value (shortened to “activity, times better than that”) on IRAK4 [2] was “more than 25 times”. In addition, the half-inhibitory concentration (IC50) at IRAK4 [2] (IRAK4 kinase, 10 μM ATP) came to 4.1 nM. Besides, in data set [3], the half-life was determined as 1.27 h and the “metabolic stability in liver microsomes of rat (in words)” value is on record as “moderate metabolic stability”. Besides, in data set [4], the “metabolic stability in liver microsomes of human (in words)” value is “good metabolism” and the half-life turned out to be 1.95 h. Moreover, in data set [5], the half-life was 1.13 h and the “metabolic stability in liver microsomes of dog (in words)” value is “moderate metabolic stability”. Also, in data set [6], the half-life was found to be 1.48 h and the “metabolic stability in liver microsomes of mouse (in words)” value is “good metabolism”.

Consider `Cn1cc(-c2cccc(NC(=O)c3cc4oc(N5CCOCC5)nc4nc3N3CCCC(O)C3)n2)cn1` (stereo not drawn) [Compound A16, 5-(3-Hydroxypiperidin-1-yl)-N-(6-(1-methyl-1H-pyrazol-4-yl)pyridin-2-yl)-2-morpholinooxazolo[4,5-b]pyridine-6-carboxamide], for which the IC50 on IRAK4 [2] (IRAK4 kinase, 10 μM ATP) was determined as 31 nM.

On to `CC1CN(c2nc3nc(N4CCOCC4)oc3cc2C(=O)Nc2cccc(-c3cnn(C)c3)n2)CCN1C` (stereo not drawn) [Compound A30, 5-(3,4-Dimethylpiperazin-1-yl)-N-(6-(1-methyl-1H-pyrazol-4-yl)pyridin-2-yl)-2-morpholinooxazolo[4,5-b]pyridine-6-carboxamide Hydrochloride], for which, at IRAK4 [2] (IRAK4 kinase, 10 μM ATP), the IC50 amounted to 125 nM.

Turning to `COc1nc2c(cc1C(=O)Nc1cccc(-c3cnn(C)c3)n1)CC(C)(C)O2` [Compound B11, 6-Methoxy-2,2-dimethyl-N-(6-(1-methyl-1H-pyrazol-4-yl)pyridin-2-yl)-2,3-dihydrofuro[2,3-b]pyridine-5-carboxamide], the IC50 at IRAK4 [2] (IRAK4 kinase, 10 μM ATP) amounted to 50 nM.

Take `COC1CCN(c2nc3nc(N4CCNCC4)oc3cc2C(=O)Nc2cccc(-c3cnn(C)c3)n2)CC1` [Compound A51, 5-(4-Methoxypiperidin-1-yl)-N-(6-(1-methyl-1H-pyrazol-4-yl)pyridin-2-yl)-2-(piperazin-1-yl)oxazolo[4,5-b]pyridine-6-carboxamide Hydrochloride]: on IRAK4 [2], the IC50 was 7 nM.

With `Cn1cc(-c2cccc(NC(=O)c3cc4oc(N5CCOCC5)nc4nc3N3CC[C@H](O)C3)n2)cn1` [Compound A6, (S)-5-(3-hydroxypyrrolidin-1-yl)-N-(6-(1-methyl-1H-pyrazol-4-yl)pyridin-2-yl)-2-morpholinooxazolo[4,5-b]pyridine-6-carboxamide], the IC50 on IRAK4 [2] (IRAK4 kinase, 10 μM ATP) came to 194 nM.

Regarding `Cn1cc(-c2cccc(NC(=O)c3cc4oc(N5CCOCC5)nc4nc3N3C4CCC3CC(O)C4)n2)cn1` (stereo not drawn) [Compound A28, 5-(3-Hydroxy-8-azabicyclo[3.2.1]octan-8-yl)-N-(6-(1-methyl-1H-pyrazol-4-yl)pyridin-2-yl)-2-morpholinooxazolo[4,5-b]pyridine-6-carboxamide], the IC50 on IRAK4 [2] (IRAK4 kinase, 10 μM ATP) is 80 nM.

Consider `COC1CCN(c2nc3c(cc2C(=O)Nc2cccc(-c4cnn(C)c4)n2)CC(C)(C)O3)CC1` [Compound B1, 6-(4-Methoxypiperidin-1-yl)-2,2-dimethyl-N-(6-(1-methyl-1H-pyrazol-4-yl)pyridin-2-yl)-2,3-dihydrofuro[2,3-b]pyridine-5-carboxamide], for which the “activity, times better than that” value at IRAK4 [2] is on record as “more than 25 times”. For the same compound, the IC50 at IRAK4 [2] (IRAK4 kinase, 10 μM ATP) came out at 4.5 nM.

For the compound `Cn1cc(-c2cccc(NC(=O)c3cc4c(nc3N3CCN(CCO)CC3)OC(C)(C)C4)n2)cn1` [Compound B3, 6-(4-(2-Hydroxyethyl)piperazin-1-yl)-2,2-dimethyl-N-(6-(1-methyl-1H-pyrazol-4-yl)pyridin-2-yl)-2,3-dihydrofuro[2,3-b]pyridine-5-carboxamide], the IC50 on IRAK4 [2] (IRAK4 kinase, 10 μM ATP) came to 31 nM.

Consider `CN1CCN(c2nc3nc(N4CCC5(CCO5)CC4)c(C(=O)Nc4cccc(-c5cnn(C)c5)n4)cc3o2)CC1` [Compound A58, N-(6-(1-Methyl-1H-pyrazol-4-yl)pyridin-2-yl)-2-(4-methylpiperazin-1-yl)-5-(1-oxa-7-azaspiro[3.5]nonan-7-yl)oxazolo[4,5-b]pyridine-6-carboxamide], for which the IC50 on IRAK4 [2] (IRAK4 kinase, 10 μM ATP) was 4.9 nM.

As for `Cn1cc(-c2cccc(NC(=O)c3cc4c(nc3N3CCC(C)(O)CC3)OC(C)(C)C4)n2)cn1` [Compound B7, 6-(4-Hydroxy-4-methylpiperidin-1-yl)-2,2-dimethyl-N-(6-(1-methyl-1H-pyrazol-4-yl)pyridin-2-yl)-2,3-dihydrofuro[2,3-b]pyridine-5-carboxamide], the half-inhibitory concentration (IC50) on IRAK4 [2] (IRAK4 kinase, 10 μM ATP) is 11 nM.

Regarding `COc1cccc(NC(=O)c2cc3oc(N4CCOCC4)nc3nc2N2CCC(O)CC2)n1` [Compound A43, 5-(4-Hydroxypiperidin-1-yl)-N-(6-methoxypyridin-2-yl)-2-morpholinooxazolo[4,5-b]pyridine-6-carboxamide], on IRAK4 [2] (IRAK4 kinase, 10 μM ATP), the IC50 turned out to be 137 nM.

In the case of `Cn1cc(-c2cccc(NC(=O)c3cc4c(nc3OC(F)F)OC(C)(C)C4)n2)cn1` [Compound B20, 6-(Difluoromethoxy)-2,2-dimethyl-N-(6-(1-methyl-1H-pyrazol-4-yl)pyridin-2-yl)-2,3-dihydrofuro[2,3-b]pyridine-5-carboxamide], the IC50 on IRAK4 [2] (IRAK4 kinase, 10 μM ATP) is 27 nM.

Consider `Cn1cc(-c2cccc(NC(=O)c3cc4c(nc3O[C@@H]3CCOC3)OC(C)(C)C4)n2)cn1` [Compound B33, (R)-2,2-Dimethyl-N-(6-(1-methyl-1H-pyrazol-4-yl)pyridin-2-yl)-6-((tetrahydrofuran-3-yl)oxy)-2,3-dihydrofuro[2,3-b]pyridine-5-carboxamide], for which, at IRAK4 [2], the “activity, times better than that” value was “more than 10 times”. Also, the IC50 at IRAK4 [2] (IRAK4 kinase, 10 μM ATP) was 8.9 nM.
